Experimental data: patent publication US20070053942A1, “Disinfectant and/or bactericidal aqueous compositions” (priority 2003, published 2007)
Counter-ions that a name gives are not always drawn.

Test: solubility in water
Assay type: physicochemical

Q: For `CCCCCCCCNC(=N)NC(=N)NCc1ccc(Cl)c(Cl)c1` [olanexidine hydrochloride, 1-(3,4-dichlorobenzyl)-5-octylbiguanide], which “solubility (in water) of olanexidine hydrochloride alone” value (at 0° C.) is on record?
A: 0.02%

Q: And the solubility in water (at 0° C.)?
A: 0.02 W/V %

Q: And the Solubility (at 25° C., water, pH adjusted to 6)?
A: 0.05 W/V %
